The text below walks through data of patent publication US20250059205A1, “Heterocyclic Compounds and Methods of Use” (AMGEN INC., priority 2021, published 2025).

Where only a bound is given, the exact number is not on record here.

The target in experiment [1] is His-tagged KRAS G12D protein (Homo sapiens, UniProt P01116, G12D). The experiment can be described thus: KRAS G12D TR-FRET Assay. Format: binding.
The target of experiment [2] is GDP-bound KRAS protein (aa 1-169), containing both G12D and C118A amino acid substitutions (Homo sapiens, UniProt P01116, C118A/G12D). The experiment can be described thus: KRAS G12D Coupled Nucleotide Exchange Assay. Format: biochemical. The conditions noted are these: 2 h compound pre-incubation. On the procedure: Following compound pre-incubation, purified SOS protein (aa 564-1049) and GTP (Roche 10106399001) were added to the assay wells and incubated for an additional 30 min. […] The assay plates were then read on a PerkinElmer EnVision Multilabel Reader, using AlphaScreen® technology, and data were analyzed using a 4-parameter logistic model to calculate IC50 values.

Experiment [3] relates to Phosphorylation of ERK1/2 in A-427 cells. Kind of experiment: Phospho-ERK1/2 MSD Assay (A-427 cells). Format: cell-based. The conditions noted are these: Homo sapiens, A-427, 2 h, 2 h treatment, read-out: p-ERK (A427 cells) IC50. The essentials:
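ERK1/2 phosphorylation measured by Meso Scale whole-cell lysate assay after A-427 cells were exposed to a titration of compound for 2 h at 37 °C.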

Experiment [4] concerns Phosphorylation of ERK1/2 in AsPC-1 cells. The experiment can be described thus: Phospho-ERK1/2 MSD Assay (AsPC-1 cells). It counts as cell-based. The conditions noted are these: Homo sapiens, ASPC1, 2 h, 2 hours treatment, read-out: p-ERK (AsPC-1 cells) IC50. The method in brief: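 Read-out: MSD electrochemiluminescent detection of phosphorylated ERK1/2 in whole-cell lysates, fitted to a 4-parameter logistic curve for IC50. Prior to lysis, AsPC-1 cells (25,000 per well) received a 2 h compound dose-response at 37 °C.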

Sequence of His-tagged KRAS G12D protein (P01116 1-188 isoform P01116-2 G12D): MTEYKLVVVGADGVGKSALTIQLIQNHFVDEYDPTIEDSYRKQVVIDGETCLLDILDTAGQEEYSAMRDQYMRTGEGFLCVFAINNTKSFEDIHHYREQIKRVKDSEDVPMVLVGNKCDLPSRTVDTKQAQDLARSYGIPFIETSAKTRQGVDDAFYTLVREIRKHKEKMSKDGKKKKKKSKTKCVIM
Sequence of GDP-bound KRAS protein (aa 1-169), containing both G12D and C118A amino acid substitutions (P01116 1-169 isoform P01116-2 G12D/C118A): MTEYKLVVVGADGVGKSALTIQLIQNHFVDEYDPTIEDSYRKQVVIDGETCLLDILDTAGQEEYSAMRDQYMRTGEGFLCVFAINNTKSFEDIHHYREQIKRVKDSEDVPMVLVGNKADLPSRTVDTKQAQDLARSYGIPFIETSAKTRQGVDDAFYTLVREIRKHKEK

Consider `Cc1c(Cl)cc2[nH]ncc2c1-c1c(Cl)cc2c(N3C[C@H]4CC[C@@H](C3)N4)nc(OC[C@@]34CCCN3C[C@H](F)C4)nc2c1F` [Example 73, 4-((1R,5S)-3,8-diazabicyclo[3.2. 1]octan-3-yl)-6-chloro-7-(6-chloro-5-methyl-1H-indazol-4-yl)-8-fluoro-2-(((2R,7aS)-2-fluorotetrahydro-1H-pyrrolizin-7a(5H)-yl)methoxy) quinazoline], for which the values for the IC50 in experiment [1], in experiment [3] and in experiment [4] were 15 nM, 422 nM and 715 nM, respectively. Moreover, the “Avg 2 h Coupled Exchange IC50” value in experiment [2] is 17 nM.

Turning to `CCc1c(F)ccc2cc(O)cc(-c3c(F)cc4c(N5C[C@H]6C[C@@H](C5)N6)nc(OC[C@@]56CCCN5C[C@H](F)C6)nc4c3F)c12` [Example 121, 4-(4-((1R,5S)-3,6-diazabicyclo[3.1.1]heptan-3-yl)-6,8-difluoro-2-(((2R,7aS)-2-fluorotetrahydro-1H-pyrrolizin-7a(5H)-yl)methoxy)quinazolin-7-yl)-5-ethyl-6-fluoronaphthalen-2-ol], the IC50 (as a rule, the concentration at which inhibition is half-maximal) turned out to be 26 nM in experiment [1], 5530 nM in experiment [3] and 2850 nM in experiment [4]. The “Avg 2 h Coupled Exchange IC50” value in experiment [2] was found to be 8 nM.

On to `CCc1cccc2cccc(-c3cc4nc(OC[C@@]56CCCN5C[C@H](F)C6)nc(N5C[C@H]6CC[C@@H](C5)N6)c4cc3F)c12` [Example 72, 4-((1R,5S)-3,8-diazabicyclo[3.2. 1]octan-3-yl)-7-(8-ethylnaphthalen-1-yl)-6-fluoro-2-(((2R,7aS)-2-fluorotetrahydro-1H-pyrrolizin-7a(5H)-yl)methoxy) quinazoline], for which the IC50 in experiment [1] is 23 nM; in experiment [3], 2680 nM; in experiment [4] it was 2600 nM. The “Avg 2 h Coupled Exchange IC50” value in experiment [2] amounted to 18 nM.

As to `CCc1c(F)ccc2cc(O)cc(-c3cc4nc(OC[C@@]56CCCN5C[C@H](F)C6)nc(N5C[C@H]6CC[C@@H](C5)N6)c4cc3F)c12` [Example 83, 4-(4-((1R,5S)-3,8-diazabicyclo[3.2. 1]octan-3-yl)-6-fluoro-2-(((2R,7aS)-2-fluorotetrahydro-1H-pyrrolizin-7a(5H)-yl)methoxy)quinazolin-7-yl)-5-ethyl-6-fluoronaphthalen-2-ol], the IC50 in experiment [1] came out at 3 nM; in experiment [3] it was 28 nM; in experiment [4] it was 77 nM. Moreover, in experiment [2], the “Avg 2 h Coupled Exchange IC50” value turned out to be 2 nM.

Consider `O=c1cc(-c2ccc3c(N4C[C@H]5CC[C@@H](C4)N5)nc(OC[C@@]45CCCN4C[C@H](F)C5)nc3c2F)c2ccccc2[nH]1` [Example 222, 4-(4-((1R,5S)-3,8-diazabicyclo[3.2.1]octan-3-yl)-8-fluoro-2-(((2R,7aS)-2-fluorotetrahydro-1H-pyrrolizin-7a(5H)-yl)methoxy)quinazolin-7-yl)quinolin-2-ol], for which the IC50 is 255 nM in experiment [1], over 10000 nM in experiment [3] and over 10000 nM in experiment [4]. Also, the “Avg 2 h Coupled Exchange IC50” value in experiment [2] was 74 nM.

`C#Cc1cccc2cc(O)cc(-c3ccc4c(N5C[C@H]6CC[C@@H](C5)N6)nc(OC[C@@]56CCCN5C[C@H](F)C6)nc4c3C)c12` [Example 191, 4-(4-((1R,5S)-3,8-diazabicyclo[3.2.1]octan-3-yl)-2-(((2R,7aS)-2-fluorotetrahydro-1H-pyrrolizin-7a(5H)-yl)methoxy)-8-methylquinazolin-7-yl)-5-ethynylnaphthalen-2-ol]: the IC50 in experiment [1] came to 3 nM; in experiment [3], 4 nM; in experiment [4], 38 nM. Besides, the “Avg 2 h Coupled Exchange IC50” value in experiment [2] was determined as 4 nM.

`Oc1cc(-c2ccc3c(N4[C@@H]5CNC[C@H]4COC5)nc(OC[C@@]45CCCN4C[C@H](F)C5)nc3c2F)c2ccccc2c1` [Example 2, 4-(4-((1R,5S)-3-oxa-7,9-diazabicyclo[3.3. 1]nonan-9-yl)-8-fluoro-2-(((2R,7aS)-2-fluorotetrahydro-1H-pyrrolizin-7a(5H)-yl)methoxy)quinazolin-7-yl)naphthalen-2-ol]: the IC50 was 7 nM in experiment [1], 222 nM in experiment [3] and 721 nM in experiment [4]. The “Avg 2 h Coupled Exchange IC50” value in experiment [2] amounted to 4 nM.
